According to patent US20110269790A1, “NOVEL THIENOPYRIDINES AS PHARMACOLOGICALLY ACTIVE AGENTS” (priority 2009, published 2011):
Where “and” joins values, the source holds several entries; their conditions need not be identical. Identical values can stand only once.

Columns and labels:
nitric oxide [1] = assay: Nitric oxide inhibition assay, sodium nitroprusside method; settings: Griess reagent, vs control
rats = assay: Acute oral toxicity, sighting study in rats; assay type: in vivo, rat; settings: for Toxic symptoms and mortality, sighting study: single oral doses 5, 50, 500, and 2000 mg/kg, observed 14 days
Method: In the series of thioenopyridine derivatives compounds BN-4, BN-14 and BN-16 show good antiinflammatory potential in all models tested. […] Acute Oral Toxicity Study was conducted following OECD guidelines by fixed dose method adopted by OECD (420). The study involved preliminary sighting using small number of animals in order to derive the dose effect relation for toxicity and mortality and to provide information on dose selection for the main study.
(§1) In the preliminary sighting study, the effect of various dosed administered to single animals of each sex was investigated in a sequential manner. The sighting study generally yields information on the dose-toxicity relationship including an estimate of the minimum lethal dose. In the main study, the test article is administered to groups of 5 males and 5 female animals at one of the fixed doses (5, 50, 500 and 2000 mg/Kg). The dose is derived from the sighting study. It is immediately below that which is expected to result in mortality. If evident toxicity is not seen at the chosen dose level, the substance should be retested at the next higher dose level. If at the initial dose level, animals die, or a severe toxicity reaction requires removal of animals from the study for animal welfare reasons, the substance is retested at the next lower dose level. Consideration of data from the both sighting study and the main study enabled a judgment to be made on determination of maximum tolerated dose.
Sighting Study: Animals were fasted overnight. Following period of fasting, the animals were weighed and were administered the test articles by oral route. After the test substance was administered food was withheld for further 3 to 4 hrs. In the sighting study, the effect of various doses was investigated in single animals of each sex. Dosing was sequential allowing at least 24 hrs before dosing the next animal. All animals were carefully observed for signs and symptoms of toxicity continuously up to 24 hrs and later up to 7 days. […] In this sighting study, the dose that produced evident toxicity but not death was identified. […]

[2] = Acute oral toxicity, main study in rats; settings: both sexes, Albino Wistar, rat, in vivo, single oral dose, read-out: Maximum tolerated dose
Method: as §1
At least 10 animals (5 males and 5 females) for each species were used for dose level in this study. Animals were fasted overnight and test articles were administered as 1% gum acacia suspension orally. The dose used in this study is selected from one of four levels 5 mg/kg, 50 mg/kg, 500 mg/kg and 2000 mg/kg i.e. the dose that produced evident toxicity but not mortality in sighting study. […] Different biochemical and hematology parameters observed on “0’ day and on termination day .During main study physical parameters like feed consumption and body weight increase were also recorded. 5 males and females were taken, and toxicity study conducted for the compounds. […] Hematology and biochemical parameters were well and within normal range when compared with 0 day in rats and mice. Based on above observations synthetic compounds were safe upto 2000 mg/kg.

Wistar rats = assay: Arachidonic acid induced paw edema; assay type: in vivo, rat; settings: one hour after Arachidonic acid
Method: Paw edema was produced in rats by Arachidonic acid following the method of Dimartino et al. (1987) and Laura segura et al., 1998. wistar rats weighing between 130-150 g were divided in to groups of six animals (n=6).A volume of 0.1 ml of 0.5% Arachidonic acid in 0.2M Carbonate buffer was injected in to the plantar side of the right hind paw of the rat. Paw volumes were measured using plethysmometer before and after one hour Arachidonic acid injection. Results obtained were compared with those obtained from the control group, which received vehicle only.

Nitric oxide [3] = assay: Nitric oxide (nitrite, Griess) estimation in LPS treated RAW 264.7 macrophages; assay type: cell-based, mouse; settings: 24 hrs, different concentrations, vs LPS treated control
Method: Cell Culture and Treatment: The RAW 264.7 (mouse macrophages, national center for cellular sciences) cells were grown in plastic T-25 culture flask in Dulbeccos modified eagles medium (DMEM) without phenol red supplemented with 10% heat activated serum (heating at 57° C. for 30 minutes, 100 μg per ml penicillin, 200 μg per ml streptomycin, 2 mmol L-glutamine, 1% antibiotic/Anti mycotic solution (GIBCO/SRL) under 5% co2 with 85% relative humidity at 37° C. After 2-3 days cells were removed from the culture flask by tripsinizing the cells with Trypsin EDTA solution. Cell count and viability was performed using a standard Trypan blue dye exclusion method. The cell concentration was adjusted to 1×10^5 cells per ml in each well with the same media in the 12 well plates. After 24 hrs incubation the media was removed from each well replaced with a fresh one containing different concentrations (50 μg, 25 μg, 12.5 μg) of the synthetic compounds BN-4, BN-14 and BN-16 along with 10 μg/ml LPS, where as normal control (PBS) and positive controls (Dexa, Roli) LPS (10 μg/ml), were added. 200 μl of media from each well was collected at 6 hrs for the estimation of TNF-α and after 24 hrs for Nitric Oxide respectively. The adherent cells, which remained after removing the media was subjected to […] for determining the cytotoxicity of compounds at selected concentrations
Measurement of Nitrite: For determination of nitric oxide concentration, the stable conversion product of nitric oxide, nitrite (NO^2−) was measured using the Griess reagent (Chi et, al., 2001). After 24 hrs incubation a volume of 100 μl of supernatant from each well of cell culture plates was transferred to 96 well micro plate and equal volume of Griess reagent (1% sulphanilamide, 0.1% N-(1-naphthyl ethylene diamine hydrochloride), 2.5% H3PO4) was then added to the supernatant at room temperature. The absorbance at 570 nm was determined in multi detection Microplate reader after 10 min. Nitric oxide concentration was calculated using standard curve.

IL-1β = IL-1β in paw tissue and serum, collagen induced arthritis; assay type: in vivo, rat; settings: for Inhibition of IL-1β in paw tissues: collagen induced study, day 24, 100 mg/kg/day; for Reduction of IL-1β levels in serum: collagen study, vs arthritic control
Text: It is believed that these proinflammatory cytokines help to propagate a local or systemic inflammatory process, and to induce biosynthesis and secretion of metalloproteinases (MMPs) and osteoclasts that critically contribute to degradation of extracellular matrix and erosion of bone respectively (Burger et al., 1998; Gravallese and Goldring, 2000; Smolen and Steiner, 2003).
On termination day blood samples were collected and serum was used for the estimation of Both TNF-α and IL-1β levels in FCA and Collagen induced studies. Both the parameters were determined using ELISA kits.

SMILES | NO release in Sodium Nitroprusside method (nitric oxide [1]) | Toxic symptoms and mortality, sighting study (rats) | MTD at 14 days [2] [mg/kg] | % Inhibition (Wistar rats; 50 mg/kg) [%] | Percentage Swelling (50 mg/kg) (Wistar rats; 50 mg/kg) [%] | % Inhibition (Wistar rats; 100 mg/kg) [%] | Percentage Swelling (100 mg/kg) (Wistar rats; 100 mg/kg) [%] | % Inhibition (Wistar rats; 200 mg/kg) | Percentage Swelling (200 mg/kg) (Wistar rats; 200 mg/kg) [%] | Release of NO from murine macrophage cell line (Nitric oxide [3]) | Inhibition of IL-1β in paw tissues (IL-1β) | Reduction of IL-1β levels in serum (IL-1β) | Toxicity, sighting study (rats; doses 2000 and 1250 mg/kg in rats)
Cc1sc2nc3c(c(N)c2c1C)CCCCC3 [BN-4, 2,3-dimethyl-6,7,8,9-tetrahydro-5H-cyclohepta[b]thieno[3,2-e]pyridin-4-amine] | significantly inhibited | do not show any toxic symptoms and mortality | > 2000 | 19.13 ± 2.01 | 55.32 ± 2.06 | 29.94 ± 3.37 | 48.54 ± 2.2 | 44.92% and 44.92 ± 3.10% | 37.50 ± 1.60 | significantly (p<0.01) suppressed | more significant inhibition (p<0.01) | more significantly (p<0.01) reduced | 
Nc1c2c(nc3sc4c(c13)CCC4)CCCC2 [BN-14, 2,3,6,7,8,9-Hexahydro-1H-cyclopenta[4,5]thieno[2,3-b]quinolin-10-amine] | significantly inhibited |  | 1060 | 24.21 ± 3.89 | 50.56 ± 3.12 | 33.6 ± 3.11 | 45.64 ± 2.0 | 41.37% and 41.37 ± 2.40% | 38.70 ± 1.60 | significantly (p<0.01) suppressed | more significant inhibition (p<0.01) | moderate inhibition (p<0.05) | toxic
Nc1c2c(nc3sc4c(c13)CCC4)CCCCC2 [BN-16, 1,2,3,6,7,8,9,10-Octahydrocyclohepta[b]cyclopenta[4,5]thieno[3,2-e]pyridine-11-amine] | significantly inhibited | do not show any toxic symptoms and mortality | > 2000 | 21.72 ± 2.80 | 52.32 ± 2.37 | 34.10 ± 2.82 | 44.95 ± 2.0 | 45.63% and 45.63 ± 2.87% | 36.30 ± 1.80 | significantly (p<0.01) suppressed | moderate inhibition (p<0.05) | more significantly (p<0.01) reduced | 
COc1ccc2c(c1)c(CC(=O)O)c(C)n2C(=O)c1ccc(Cl)cc1 [Indomethacin, reference compound] |  |  |  |  |  |  |  |  |  |  | moderate inhibition (p<0.05) | moderate inhibition (p<0.05) | 
